Data taken from patent publication US11208412B2 (DAEGU-GYEONGBUK MEDICAL INNOVATION FOUNDATION, priority 2017, dated 2021).

Columns and labels:
Assay in all cases: Kinase selectivity, DiscoverX scanMAX Kinase assay panel (% control)
Format in all cases: binding
[1] = target: T1, kinases of the scanMAX Kinase assay panel (Homo sapiens, UniProt Q96PN8); details: kinase TSSK3; 1 uM in DMSO
T1 construct: purchased DiscoverX Co. (contract measurement) scanMAX Kinase assay panel
T1 sequence (Q96PN8 1-268): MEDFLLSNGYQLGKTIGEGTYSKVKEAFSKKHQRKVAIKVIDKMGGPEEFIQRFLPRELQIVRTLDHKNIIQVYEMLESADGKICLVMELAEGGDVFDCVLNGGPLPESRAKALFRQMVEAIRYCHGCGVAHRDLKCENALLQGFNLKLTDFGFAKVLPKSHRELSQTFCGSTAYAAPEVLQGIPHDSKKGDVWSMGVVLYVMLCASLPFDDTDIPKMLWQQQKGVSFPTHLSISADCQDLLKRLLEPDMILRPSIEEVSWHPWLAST
Procedure, shortened: (§1)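 Compounds were tested at 1 uM (in DMSO) against each panel kinase. % control was calculated as (compound − positive control)/(negative control − positive control)×100, where the positive control gives 0% and DMSO gives 100%. Activity toward a kinase was called at % control <35%.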

[2] = target: T2, kinases of the scanMAX Kinase assay panel (Homo sapiens, UniProt P22607, G697C); details: FGFR3(G697C); 1 uM
T2 construct: purchased DiscoverX Co. (contract measurement) scanMAX Kinase assay panel
Procedure, shortened: as §1

[3] = target: T3, kinases of the scanMAX Kinase assay panel (Homo sapiens, UniProt Q9H3Y6); details: kinase SRMS; 1 uM in DMSO
T3 construct: purchased DiscoverX Co. (contract measurement) scanMAX Kinase assay panel
Procedure, shortened: as §1

[4] = target: T4, kinases of the scanMAX Kinase assay panel (Homo sapiens, UniProt P42336); details: PIK3CA; 1 uM
T4 construct: purchased DiscoverX Co. (contract measurement) scanMAX Kinase assay panel
Procedure, shortened: as §1

[5] = target: T5, kinases of the scanMAX Kinase assay panel (Homo sapiens, UniProt Q9P0L2); details: MARK1; 1 uM
T5 construct: purchased DiscoverX Co. (contract measurement) scanMAX Kinase assay panel
Procedure, shortened: as §1

[6] = target: T6, kinases of the scanMAX Kinase assay panel (Homo sapiens, UniProt Q5S007); details: LRRK2; 1 uM
T6 construct: purchased DiscoverX Co. (contract measurement) scanMAX Kinase assay panel
Procedure, shortened: as §1

[7] = target: T7, kinases of the scanMAX Kinase assay panel (Homo sapiens, UniProt Q8WXR4); details: MYO3B; 1 uM
T7 construct: purchased DiscoverX Co. (contract measurement) scanMAX Kinase assay panel
T7 sequence (Q8WXR4 1-1341): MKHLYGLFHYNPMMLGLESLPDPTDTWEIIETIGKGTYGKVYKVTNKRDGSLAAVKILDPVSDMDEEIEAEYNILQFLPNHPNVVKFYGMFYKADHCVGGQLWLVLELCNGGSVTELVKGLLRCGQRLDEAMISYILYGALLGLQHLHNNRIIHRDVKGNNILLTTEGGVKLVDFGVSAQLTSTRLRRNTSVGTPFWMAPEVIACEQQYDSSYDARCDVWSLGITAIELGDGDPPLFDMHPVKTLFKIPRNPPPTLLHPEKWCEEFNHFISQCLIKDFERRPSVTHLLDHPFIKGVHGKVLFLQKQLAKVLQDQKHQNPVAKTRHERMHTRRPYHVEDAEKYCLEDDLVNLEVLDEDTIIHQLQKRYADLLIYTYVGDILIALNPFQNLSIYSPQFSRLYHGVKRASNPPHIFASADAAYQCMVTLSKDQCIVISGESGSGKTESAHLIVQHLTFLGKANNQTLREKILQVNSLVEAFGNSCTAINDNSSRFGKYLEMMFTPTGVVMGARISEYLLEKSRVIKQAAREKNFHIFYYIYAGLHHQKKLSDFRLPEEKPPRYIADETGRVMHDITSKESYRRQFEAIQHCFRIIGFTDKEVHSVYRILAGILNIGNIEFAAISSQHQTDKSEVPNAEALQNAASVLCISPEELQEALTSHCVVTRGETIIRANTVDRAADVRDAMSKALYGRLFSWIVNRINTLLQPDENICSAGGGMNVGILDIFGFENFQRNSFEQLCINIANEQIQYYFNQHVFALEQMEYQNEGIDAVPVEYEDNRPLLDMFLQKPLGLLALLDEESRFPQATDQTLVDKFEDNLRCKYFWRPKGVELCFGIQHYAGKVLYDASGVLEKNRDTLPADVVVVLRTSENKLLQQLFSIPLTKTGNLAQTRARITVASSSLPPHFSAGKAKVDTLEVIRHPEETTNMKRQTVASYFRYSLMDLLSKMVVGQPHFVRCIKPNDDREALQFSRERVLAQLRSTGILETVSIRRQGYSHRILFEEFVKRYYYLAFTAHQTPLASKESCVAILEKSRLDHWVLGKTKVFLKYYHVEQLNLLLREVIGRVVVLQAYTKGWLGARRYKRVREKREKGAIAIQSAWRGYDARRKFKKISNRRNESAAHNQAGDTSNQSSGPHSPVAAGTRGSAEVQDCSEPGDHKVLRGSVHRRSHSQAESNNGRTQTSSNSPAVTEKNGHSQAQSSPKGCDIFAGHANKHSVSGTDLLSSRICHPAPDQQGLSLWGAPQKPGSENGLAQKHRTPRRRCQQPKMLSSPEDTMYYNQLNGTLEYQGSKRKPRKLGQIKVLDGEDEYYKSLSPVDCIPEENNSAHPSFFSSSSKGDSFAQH
Procedure, shortened: as §1

[8] = target: T8, kinases of the scanMAX Kinase assay panel (Homo sapiens, UniProt P00533, L858R/T790M); details: EGFR(L858R, T790M); 1 uM
T8 construct: purchased DiscoverX Co. (contract measurement) scanMAX Kinase assay panel
Procedure, shortened: as §1

[9] = target: T9, kinases of the scanMAX Kinase assay panel (Homo sapiens, UniProt P31152); details: ERK4; 1 uM
T9 construct: purchased DiscoverX Co. (contract measurement) scanMAX Kinase assay panel
Procedure, shortened: as §1

T8 sequence (P00533 25-1210 T790M/L858R): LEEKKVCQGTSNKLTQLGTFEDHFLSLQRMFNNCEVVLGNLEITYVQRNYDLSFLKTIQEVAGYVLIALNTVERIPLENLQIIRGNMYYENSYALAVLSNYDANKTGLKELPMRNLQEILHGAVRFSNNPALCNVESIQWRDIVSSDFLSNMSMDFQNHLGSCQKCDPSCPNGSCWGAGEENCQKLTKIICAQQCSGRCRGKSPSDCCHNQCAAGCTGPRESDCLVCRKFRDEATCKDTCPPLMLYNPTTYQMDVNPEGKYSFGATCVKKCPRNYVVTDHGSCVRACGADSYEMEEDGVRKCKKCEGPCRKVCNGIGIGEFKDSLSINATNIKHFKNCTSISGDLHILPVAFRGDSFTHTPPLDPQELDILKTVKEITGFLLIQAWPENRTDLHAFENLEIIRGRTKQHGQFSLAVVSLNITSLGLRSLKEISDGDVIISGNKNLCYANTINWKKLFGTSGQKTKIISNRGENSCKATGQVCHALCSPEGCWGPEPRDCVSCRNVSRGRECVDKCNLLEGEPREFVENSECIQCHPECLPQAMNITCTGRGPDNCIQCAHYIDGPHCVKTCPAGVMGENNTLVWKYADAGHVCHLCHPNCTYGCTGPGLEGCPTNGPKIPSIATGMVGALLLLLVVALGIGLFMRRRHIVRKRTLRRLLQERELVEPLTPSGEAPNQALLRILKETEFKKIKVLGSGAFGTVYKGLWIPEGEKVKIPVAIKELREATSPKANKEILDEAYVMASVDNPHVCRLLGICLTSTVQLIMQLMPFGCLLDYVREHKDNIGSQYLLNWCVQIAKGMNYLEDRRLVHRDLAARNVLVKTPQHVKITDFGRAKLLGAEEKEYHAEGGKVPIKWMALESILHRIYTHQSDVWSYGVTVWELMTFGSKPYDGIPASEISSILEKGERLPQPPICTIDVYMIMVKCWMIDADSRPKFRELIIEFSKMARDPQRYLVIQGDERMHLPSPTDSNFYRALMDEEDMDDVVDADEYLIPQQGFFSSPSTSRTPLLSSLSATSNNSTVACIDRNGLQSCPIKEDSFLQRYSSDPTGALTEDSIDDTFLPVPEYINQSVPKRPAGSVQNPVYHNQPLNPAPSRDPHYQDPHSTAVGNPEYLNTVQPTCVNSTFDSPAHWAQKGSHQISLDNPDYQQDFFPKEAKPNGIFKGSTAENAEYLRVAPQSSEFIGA
T3 sequence (Q9H3Y6 whole entry): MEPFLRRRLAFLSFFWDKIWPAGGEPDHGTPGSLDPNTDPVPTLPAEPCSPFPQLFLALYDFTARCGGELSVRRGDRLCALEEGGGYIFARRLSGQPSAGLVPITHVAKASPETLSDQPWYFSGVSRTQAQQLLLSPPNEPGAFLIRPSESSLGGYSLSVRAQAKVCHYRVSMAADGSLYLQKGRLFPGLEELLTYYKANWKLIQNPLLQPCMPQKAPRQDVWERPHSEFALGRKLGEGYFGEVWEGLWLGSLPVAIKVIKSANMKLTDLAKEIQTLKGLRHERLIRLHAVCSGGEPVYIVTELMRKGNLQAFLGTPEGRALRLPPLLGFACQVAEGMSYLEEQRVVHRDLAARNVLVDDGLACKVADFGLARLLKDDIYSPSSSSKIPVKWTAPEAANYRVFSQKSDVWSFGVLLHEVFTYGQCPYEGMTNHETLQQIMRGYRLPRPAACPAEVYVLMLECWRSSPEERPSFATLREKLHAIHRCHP
T6 sequence (Q5S007 whole entry): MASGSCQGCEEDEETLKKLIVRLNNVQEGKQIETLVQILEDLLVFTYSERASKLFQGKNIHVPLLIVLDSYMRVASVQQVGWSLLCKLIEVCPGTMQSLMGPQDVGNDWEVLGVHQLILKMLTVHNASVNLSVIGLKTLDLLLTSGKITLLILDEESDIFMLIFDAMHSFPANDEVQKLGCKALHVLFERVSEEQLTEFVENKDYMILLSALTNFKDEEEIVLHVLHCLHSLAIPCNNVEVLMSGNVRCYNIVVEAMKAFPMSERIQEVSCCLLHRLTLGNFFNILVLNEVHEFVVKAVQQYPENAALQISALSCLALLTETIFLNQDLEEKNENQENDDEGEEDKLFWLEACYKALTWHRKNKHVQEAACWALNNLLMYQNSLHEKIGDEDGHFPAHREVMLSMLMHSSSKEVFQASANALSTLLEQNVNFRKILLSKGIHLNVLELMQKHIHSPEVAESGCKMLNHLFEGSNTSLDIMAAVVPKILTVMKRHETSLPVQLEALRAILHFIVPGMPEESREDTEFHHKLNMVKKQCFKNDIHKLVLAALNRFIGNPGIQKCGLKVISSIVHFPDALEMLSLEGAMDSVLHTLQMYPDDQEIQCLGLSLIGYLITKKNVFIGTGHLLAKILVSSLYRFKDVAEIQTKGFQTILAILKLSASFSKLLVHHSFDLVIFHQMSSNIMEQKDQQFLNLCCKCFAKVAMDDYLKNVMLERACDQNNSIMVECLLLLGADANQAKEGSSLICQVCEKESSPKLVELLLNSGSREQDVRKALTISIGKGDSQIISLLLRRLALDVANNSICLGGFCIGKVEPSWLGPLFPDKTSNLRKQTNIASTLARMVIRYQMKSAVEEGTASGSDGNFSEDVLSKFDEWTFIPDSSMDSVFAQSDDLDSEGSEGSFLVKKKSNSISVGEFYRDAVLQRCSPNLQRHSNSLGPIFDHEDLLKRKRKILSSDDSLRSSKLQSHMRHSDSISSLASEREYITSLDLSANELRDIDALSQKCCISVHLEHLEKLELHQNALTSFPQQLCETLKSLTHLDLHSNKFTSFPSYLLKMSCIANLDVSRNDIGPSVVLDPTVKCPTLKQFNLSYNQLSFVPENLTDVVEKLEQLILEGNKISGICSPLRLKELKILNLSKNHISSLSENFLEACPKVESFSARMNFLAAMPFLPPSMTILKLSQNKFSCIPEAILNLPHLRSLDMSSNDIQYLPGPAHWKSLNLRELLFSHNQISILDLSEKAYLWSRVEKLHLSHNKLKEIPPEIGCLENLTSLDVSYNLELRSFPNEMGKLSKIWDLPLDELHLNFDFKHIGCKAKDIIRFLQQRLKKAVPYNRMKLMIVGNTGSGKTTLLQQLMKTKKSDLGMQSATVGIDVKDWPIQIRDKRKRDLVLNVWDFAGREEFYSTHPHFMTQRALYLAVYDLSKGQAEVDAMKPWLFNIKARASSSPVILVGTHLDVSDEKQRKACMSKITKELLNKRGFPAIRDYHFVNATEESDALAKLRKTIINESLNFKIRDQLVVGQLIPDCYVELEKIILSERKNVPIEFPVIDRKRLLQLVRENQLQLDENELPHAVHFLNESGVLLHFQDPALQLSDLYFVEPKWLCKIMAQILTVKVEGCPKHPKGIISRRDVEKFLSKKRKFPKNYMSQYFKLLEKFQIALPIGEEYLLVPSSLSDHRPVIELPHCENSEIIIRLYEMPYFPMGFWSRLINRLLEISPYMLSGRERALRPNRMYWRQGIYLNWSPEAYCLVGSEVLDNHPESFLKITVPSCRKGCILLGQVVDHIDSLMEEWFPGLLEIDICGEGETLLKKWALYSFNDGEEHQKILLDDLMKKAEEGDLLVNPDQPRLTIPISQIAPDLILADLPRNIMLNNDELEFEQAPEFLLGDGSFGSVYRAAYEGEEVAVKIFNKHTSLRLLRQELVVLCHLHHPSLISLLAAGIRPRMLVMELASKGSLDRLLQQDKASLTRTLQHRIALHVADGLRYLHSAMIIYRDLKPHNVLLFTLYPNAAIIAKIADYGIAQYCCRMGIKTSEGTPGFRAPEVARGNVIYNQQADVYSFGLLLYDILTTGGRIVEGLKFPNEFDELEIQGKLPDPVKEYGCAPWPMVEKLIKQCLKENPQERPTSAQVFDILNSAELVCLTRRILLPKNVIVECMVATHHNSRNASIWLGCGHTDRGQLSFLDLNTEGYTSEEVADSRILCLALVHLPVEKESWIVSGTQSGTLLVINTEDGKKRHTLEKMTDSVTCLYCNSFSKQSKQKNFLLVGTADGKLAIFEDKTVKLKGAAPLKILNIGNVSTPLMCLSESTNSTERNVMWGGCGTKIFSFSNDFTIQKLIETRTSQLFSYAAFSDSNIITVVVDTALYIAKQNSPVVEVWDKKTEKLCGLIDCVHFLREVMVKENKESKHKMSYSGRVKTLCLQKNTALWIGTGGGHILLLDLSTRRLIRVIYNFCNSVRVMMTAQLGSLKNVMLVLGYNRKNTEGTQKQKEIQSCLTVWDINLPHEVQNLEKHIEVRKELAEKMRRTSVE
T9 sequence (P31152 whole entry): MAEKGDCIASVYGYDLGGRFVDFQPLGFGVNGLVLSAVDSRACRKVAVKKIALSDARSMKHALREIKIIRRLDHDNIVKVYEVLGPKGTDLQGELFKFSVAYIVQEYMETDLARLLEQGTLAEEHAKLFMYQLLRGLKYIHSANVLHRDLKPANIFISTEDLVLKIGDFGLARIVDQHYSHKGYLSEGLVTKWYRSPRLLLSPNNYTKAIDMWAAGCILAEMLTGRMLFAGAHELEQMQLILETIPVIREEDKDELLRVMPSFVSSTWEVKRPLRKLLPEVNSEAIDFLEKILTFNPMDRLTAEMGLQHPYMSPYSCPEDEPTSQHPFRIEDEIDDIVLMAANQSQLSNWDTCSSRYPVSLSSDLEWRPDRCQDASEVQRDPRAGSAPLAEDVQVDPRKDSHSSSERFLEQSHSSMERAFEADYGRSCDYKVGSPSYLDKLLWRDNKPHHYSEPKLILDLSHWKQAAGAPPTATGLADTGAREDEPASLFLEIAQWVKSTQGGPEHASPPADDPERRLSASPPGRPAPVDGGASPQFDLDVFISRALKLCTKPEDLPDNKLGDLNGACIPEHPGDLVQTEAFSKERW

Row | SMILES | remaining binding at 1 µM [1] [%] | remaining binding at 1 µM [2] [%] | remaining binding at 1 µM [3] [%] | remaining binding at 1 µM [4] [%] | remaining binding at 1 µM [5] [%] | remaining binding at 1 µM [6] [%] | remaining binding at 1 µM [7] [%] | remaining binding at 1 µM [8] [%] | remaining binding at 1 µM [9] [%]
1 | CCNc1nc(Nc2ccc(C(=O)N3CCC(N4CCOCC4)CC3)cc2OC)nc2[nH]cc(C(F)(F)F)c12 [Example 104, (4-((4-(ethylamino)-5-(trifluoromethyl)-7H-pyrrolo[2,3-d]pyrimidine-2-yl)amino)-3-methoxyphenyl)(4-morpholinopiperidine-1-yl)methanone] | 100 | 100 | 66 | 99 | 100 | 1.2 | 19 | 55 | 92
2 | CC1(Nc2nc(Nc3cnn([C@H]4CCN(C5COC5)C[C@@H]4F)c3Cl)nc3[nH]cc(C#N)c23)CC1 [Example 52, 2-((5-chloro-1-((3S,4S)-3-fluoro-1-(oxetane-3-yl)piperidine-4-yl)-1H-pyrazole-4-yl)amino)((1-methylcyclopropyl)amino)-7H-pyrrolo[2,3-d]pyrimidine-5-carbonitrile] | 72 | 11 | 41 | 60 | 36 | 0 | 10 | 2.3 | 100
3 | CNc1nc(Nc2ccc(C(=O)N3CCOCC3)cc2OC)nc2[nH]cc(C#N)c12 [Example 1, 2-((2-methoxy-4-(morpholine-4-carbonyl)phenyl)amino)-4-(methylamino)-7H-pyrrolo[2,3-d]pyrimidine-5-carbonitrile] | 74 | 97 | 69 | 87 | 91 | 0 | 84 | 54 | 95
